From PMC5770468, “Cardiac glycoside/aglycones inhibit HIV-1 gene expression by a mechanism requiring MEK1/2-ERK1/2 signaling” (Scientific Reports, 2018)
Read-outs that look alike come from different tables or passages of the source.

Tests used:
[1] = test system: HIV-1 (Gag) gene expression; assay: HIV-1 (Gag) gene expression in HeLa rtTA-HIV-ΔMls cells, p24CA ELISA dose response; assay type: cell-based, HIV-1 (LAI)
Protocol: Drug/compounds were tested for effects on HIV-1 gene expression using inducible Tet-ON HIV-1 cell lines [HeLa rtTA-HIV-ΔMls or rtTA-HIV(Gag-GFP)] containing a HIV-1 (LAI) provirus activatable by Dox or tetracycline transactivator (tTA)[69]. The rtTA-HIV-ΔMls provirus was modified and used as previously reported[9]–[11],[70]. The rtTA-HIV(Gag-GFP) provirus was generated by deletion of the PR and RT coding regions within pol and insertion of GFP to the 3′ of gag, creating GFP fused to the C-terminal of Gag. After 4 h of drug/compound treatment, HIV-1 gene expression was activated with Dox (2 μg/mL) or tTA (described below). Equal concentrations of DMSO were present in each experiment. After ~20 h, cells and media were harvested to monitor the effects of drug/compound treatments as described below. HIV-1 gene expression was quantified via p24^CA ELISA or monitoring Gag-GFP fluorescence in cells as described below. In parallel, cell viability of treatments were assessed by XTT assay (Sigma-Aldrich, #TOX2).
Drug/compounds were purchased from Sigma (Digoxin, #D6003; Digitoxin, #D5878; Digoxigenin, #D9026; Digitoxigenin, #D9404; Ouabain, #O3125; Bufalin, #S961175; Cinobufagin, #C1272; and Anisomycin, #A9789) and derivatives of convallatoxin were synthesized from C. Lingwood’s lab of the Hospital for Sick Children (convallatoxin, peruvoside, RIDK-34, -36, -20, -21, -27, and -28). […] Recombinant human EGF was from Invitrogen (#PHG0314). Chemical structures were drawn in ChemSketch (ACD/Labs).
To monitor HIV-1 gene expression or replication, Gag release into cell culture supernatants were assayed by ELISA using a p24^CA antigen capture assay kit (AIDS & Cancer Virus Program, NCI-Frederick, Frederick, MD USA). Media harvested from HIV clinical isolates were diluted ~10 fold (or as necessary) prior to performing this assay. For analysis of HIV-1 and SR protein expression (and phosphorylation states with calf intestinal alkaline phosphatase treatments), cells were lysed and analyzed by western blot as previously outlined. Phosphatase inhibitors (e.g. 10 mM sodium fluoride, 2 mM sodium orthovanadate) were added to solutions requiring phospho protein analyses. An anti-chicken NKA antibody (α6F, #a6F–c, Developmental Studies Hybridoma Bank, The University of Iowa, contributed by Douglas M. Fambrough, The Johns Hopkins University) was used as specified to detect NKA α1- and β1-subunits across species. […] Activation of MAPKs was determined by western blot quantitation and calculation of phospho/total protein levels. […] Images were exported as TIF files for assembly, rotation, and equal brightness/contrast adjustments in ImageJ or Microsoft Powerpoint. Some lanes were cropped and rearranged from the same blot/gel as indicated. In representative gel/blot sets, samples were electrophoresed from the same experiment as controls, resolved simultaneously on identically cast gel(s), transferred to same PVDF (by either wet electrophoretic or by Bio-Rad Trans-Blot® Turbo Transfer System), and detected at same time. Marked locations of molecular weight (MW) standards are shown on the left as a reference. […] SUnSET analysis of total cellular protein synthesis. HeLa rtTA-HIV-ΔMls cells were cultured in the presence/absence of compound and pathway inhibitor (if any) and Dox induced for ~24 h as already described, then treated with puromycin (10 μg/mL, Sigma-Aldrich, #P8833) for 30 min to label nascent proteins prior to harvest. As control, 10 µM of cycloheximide (Sigma-Aldrich, #C4849) was added to some cells prior to puromycin treatment. Cells were subsequently washed, whole cell lysates prepared, and proteins quantified by western blot using an anti-puromycin antibody (EMD Millipore, #anti-12D10) as described above. Transfection of plasmid DNA into cells.

HIV-1 US RNAs = assay: FISH localization of HIV-1 US RNA in HeLa rtTA-HIV(Gag-GFP) cells; assay type: cell-based; conditions: ~IC90s of CSs
Source text: Figure 4 CSs suppress HIV-1 gene expression by altering viral RNA processing. […] (a,b) CSs induce oversplicing of HIV-1 RNAs (n ≥ 3, mean, s.e.m.). (a) Diagram of the primer positions (arrow heads) used for qRT-PCR. (b) Graph of the relative amount of US (black), SS (white), and MS (gray) HIV-1 RNAs in cells treated with various CSs. (c) Nuclear export of HIV-1 US RNAs in cells is altered by CSs (representative n ≥ 4). HIV-1 US RNAs were localized by FISH after treating HeLa rtTA-HIV(Gag-GFP) cells as described above but with ~IC90s of CSs. Nuclei were stained by DAPI and images captured at 630 × magnification. (d) CSs induce differential post-translational modification of SR proteins (representative n ≥ 3). SRp20, Tra2β, and tubulin were analyzed by immunoblot of HeLa rtTA-HIV-ΔMls cells treated as described above except cells of this representative blot were treated 3 d with ~IC50s of CSs. (g) Lanes were cropped and assembled from the same gel/blot per box (Supplementary Fig. S4d).
RNA was extracted from cells, reverse transcribed, and resulting cDNAs subject to qRT-PCR quantification of HIV-1 mRNAs as previously described except reactions used iTaq™ Universal SYBR® Green Supermix (Bio-Rad, #172-5120) run on a Bio-Rad CFX384 Touch™ Real-Time PCR Detection System and analyzed with CFX Manager™[9]. NKA α1, 2, and 3 subunits were detected by published primers, amplified by iTaq using the same cycling temperature and times previously described for HIV-1 US/MS cDNAs except α1, 2, and 3 annealing temperatures were 61 °C[9],[73]. All data was normalized to β-actin as internal loading control. Primers sequences for NKA α subunits were as follows: α1 forward (5′-[…] -3′), α1 reverse (5′- […] -3′), α2 forward (5′-[…]-3′), α2 reverse (5′-[…]-3′), α3 forward (5′-[…]-3′), and α3 reverse (5′-GGGCAGACTCAGACGCATC-3′). Monitoring the subcellular localization of HIV-1 genomic RNA. HeLa rtTA-HIV(Gag-GFP) cells were seeded on cover slips, treated with drug/compound, and processed for FISH to detect HIV-1 US RNAs using Stellaris™ probes (Biosearch Technologies) as previously detailed[10],[11].

HeLa rtTA-HIV-ΔMls cells = assay: In vitro therapeutic index (CC20/IC50) in HeLa rtTA-HIV-ΔMls cells; assay type: cell-based, human
Source text: Without median toxic dose (TD50) and half-maximal effective concentration (EC50) data available to calculate TIs (in vivo) from HIV patients treated with CSs, we determined the following TIs for each cell type treated with a CS (summarized in Supplementary Table S1): in vitro TIs from HeLa rtTA-HIV-ΔMls cells using CC20/IC50 (instead of CC50/IC50), in vitro TIs from 24ST1NLESG cells using CC50/IC50, and ex vivo TIs from HIV-infected PBMCs using CC50/IC50 (at day 14 of culture approximated from available cell viability trends for CC50s of Supplementary Fig. S13 and inferred near maximal IC50s).
Supplementary Table S1. Comparison of the in vitro (IVTI) and ex vivo therapeutic indices (EVTIs) of CSs and their impact on the expression of essential HIV-1 proteins.
Notes: data for CC20, CC50, and IC50s for each drug/compound were estimated from dose response curves in Figures 1-2, Supplementary Table S1, Supplementary Figures S2, S5, and S13, and Wong et al.
">" means the estimate has not been accurately determined but is greater than the highest concentration […]
"( )" indicates preliminary data that was not shown. aCC20 instead of CC50 was estimated from dose response curves and used for calculation of IVTIs. bCells were treated at ~IC90of a CS.
(1 picture or pasted object on this page, not shown here)

Structure (SMILES): C[C@]12CC[C@H](O)C[C@H]1CC[C@@H]1[C@@H]2CC[C@]2(C)[C@@H](c3ccc(=O)oc3)CC[C@]12O [Bufalin]
- IC50 lower for HIV-1 inhibition compared to digoxin [1]: 9 fold
- better anti-HIV-1 activity than digoxin [1]: 9 fold
- IC50 ([1]; Human immunodeficiency virus 1, HeLa, read-out: IC50 (nM) HeLa rtTA-HIV-ΔMls): 5 nM
- IC90 ([1]; Human immunodeficiency virus 1, HeLa, read-out: IC90, HIV-1 (Gag) gene expression): 15 nM
- IC80 ([1]; Human immunodeficiency virus 1, HeLa, read-out: ~IC80 (approximate concentration used in experiments)): ~11 nM
- IC90 ([1]; Human immunodeficiency virus 1, HeLa, read-out: ~IC90 (approximate concentration used in experiments)): ~15 nM
- HIV-1 US RNA subcellular localization (HIV-1 US RNAs): almost exclusively within the nucleus
- better in vitro TI than digoxin (HeLa rtTA-HIV-ΔMls cells): 9 fold
